The values below come from publication PMC10698032, “A monoacylglycerol lipase inhibitor showing therapeutic efficacy in mice without central side effects or dependence” (Nature Communications, 2023).

Experiment [1] addresses T1, MAGL (monoacylglycerol lipase) (Homo sapiens, UniProt Q99685).
T1 construct: gene MGLL; full-length, C-terminal FLAG-tag, HEK293T membrane fractions
Description: fluorescent 2-AG hydrolysis assay on human MAGL-overexpressing HEK293T membranes. Type of experiment: biochemical.

In experiment [2] the target is T2, MAGL (monoacylglycerol lipase) (Mus musculus, UniProt O35678).
T2 sequence (O35678 1-303): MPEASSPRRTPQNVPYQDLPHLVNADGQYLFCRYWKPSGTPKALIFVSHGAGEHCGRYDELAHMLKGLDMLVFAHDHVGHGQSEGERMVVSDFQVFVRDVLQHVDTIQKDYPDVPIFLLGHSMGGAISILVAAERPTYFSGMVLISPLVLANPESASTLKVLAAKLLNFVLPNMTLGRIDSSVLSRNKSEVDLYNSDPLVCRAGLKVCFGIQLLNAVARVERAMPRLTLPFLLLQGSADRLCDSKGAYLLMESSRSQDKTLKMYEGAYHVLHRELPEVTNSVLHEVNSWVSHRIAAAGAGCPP
Put plainly: biochemical. Set-up: gene Mgll; endogenous, mouse brain membrane proteome; gel-based competitive ABPP with FP-TAMRA on mouse brain membrane proteome, MAGL labelling, n=1. The following applies: read-out: Inhibition ABPP assay (%). The text has this:
Subsequently, the qualified hits underwent testing in an orthogonal gel-based competitive activity-based protein profiling (ABPP) assay, a powerful technique for obtaining an initial selectivity profile of these compounds. The assay employed fluorophosphonate-tetramethylrhodamine (FP-TAMRA), a broad-spectrum activity-based probe designed to target a wide range of serine hydrolases, including endocannabinoid hydrolases like MAGL, fatty acid amide hydrolase (FAAH), and alpha/beta hydrolase domain-containing protein 6 (ABHD6)[30],[31]. […] This observation could indicate potential species differences or a short residence time for the target. A correlation between inhibitor potency in the primary substrate-based assay and the orthogonal ABPP assay was, however, noted for the majority of compounds (Fig. 1f). […] This characteristic positions it as a promising candidate for further optimization. 71 Figure S1 72 73 74 75 76 Supplementary Figure 1 – Orthogonal competitive ABPP assay for hit validation and selectivity assessment. 77 ABPP was performed on mouse brain membrane proteome using FP-TAMRA. Proteome was pre-incubated with 78 inhibitor (10 µM, 30 min), followed by incubation with FP-TAMRA (100 nM, 10 min). JZL184 was included as 79 positive control on all gels. […] Physicochemical properties (cLogP, tPSA, HBD, HBA) were calculated using ChemDraw Professional 31 16.0.

Experiment [3] deals with T2, MAGL (monoacylglycerol lipase). Put plainly: gel-based competitive ABPP with FP-TAMRA at […]. Format: cell-based. Set-up: gene Mgll; endogenous, mouse brain membrane proteome. The following applies: read-out: % inhibition at 10 μM.

A value given as a limit tells only on which side of the number the result lay.

T1 sequence (Q99685 whole entry): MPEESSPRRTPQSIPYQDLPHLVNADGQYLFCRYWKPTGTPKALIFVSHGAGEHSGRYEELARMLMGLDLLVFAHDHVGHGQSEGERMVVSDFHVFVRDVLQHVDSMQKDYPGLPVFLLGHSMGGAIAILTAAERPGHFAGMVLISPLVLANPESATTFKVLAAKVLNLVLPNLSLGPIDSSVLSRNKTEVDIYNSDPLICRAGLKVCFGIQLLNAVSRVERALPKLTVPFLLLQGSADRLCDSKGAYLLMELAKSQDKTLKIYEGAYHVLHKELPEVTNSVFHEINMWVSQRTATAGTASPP

Regarding `CCOC(=O)C[S+]([O-])c1ccc(C(=O)N2CCN(c3cccc(C)c3)C(C)C2)cc1[N+](=O)[O-]` (stereo not drawn) [compound 1, ethyl 2-((4-(3-methyl-4-(m-tolyl)piperazine-1-carbonyl)-2-nitrophenyl)sulfinyl)acetate], inhibition in experiment [1] was half-maximal at 398 nM (IC50). For the same compound, the inhibition (usually the relative decrease from the control value, in per cent) at 10 µM was 86% in experiment [2] and greater than 25% in experiment [3].
